From patent US20120027857A1, “CONTROLLED RELEASE PHARMACEUTICAL CO[…]-[…]-VENLAFAXINE” (LEK PHARMACEUTICALS D.D., priority 2008, published 2012)

Assays:
pH of 1% water solution = type: physicochemical
[1] = Dissolution test, USP apparatus 1, 900 ml water with 0.9% NaCl, 150 rpm, 37°C, HPLC; type: physicochemical; conditions: compared to O-desmethyl-venlafaxine succinate from the tablet having the same composition
Method: Dissolution properties were evaluated by in vivo relevant dissolution test. USP apparatus 1 was used for testing. 900 ml of water with 0.9% NaCl is placed in the dissolution vessel, mixed with a paddle at 150 rpm and kept at 37±0.5° C. Samples were taken from the dissolution vessel at regular time intervals and the concentrations of O-desmethyl-venlafaxine were analyzed by HPLC.
Pharmaceutical compositions might be optionally placed for 60 minutes in 900 ml 0.01 M HCl before being placed in 900 ml water with 0.9% NaCl.

Structure (SMILES) | pH (1% water solution) (pH of 1% water solution) | dissolution of salt from matrix tablet [1]
CN(C)CC(c1ccc(O)cc1)C1(O)CCCCC1.O=C[C@H](O)[C@@H](O)[C@H](O)[C@H](O)C(=O)O (stereo not drawn) [O-desmethyl-venlafaxine glucuronate] | 6.14 | 
CN(C)CC(c1ccc(O)cc1)C1(O)CCCCC1.O=C(O)c1cc(=O)[nH]c(=O)[nH]1 (stereo not drawn) [O-desmethyl-venlafaxine orotate] | 3.3 | much faster
